Reference: patent US5332731A, “Cephalosporin derivatives” (Meiji Seika Kaisha, Ltd., priority 1989, dated 1994)
Converted amounts (≈) assume the structure as drawn.

Tests used:
[1] = oral toxicity in mice; details: mouse, in vivo, oral administration, read-out: oral dosage tolerated without exhibiting toxic symptoms
Method: The new cephalosporin derivative of this invention may be administered orally at a unit dose of 100 mg to 250 mg to an adult human patient four times a day, for a guideline. However, precise dosage of the new cephalosporin is determinable through preliminary routine experiments, depending on the body weight, ages, sex and other various parameters of patients as well as the nature of the bacterial infections to be treated, and so on.

[2] = test system: Escherichia coli 255; test: antibacterial activity, MIC by standard serial dilution method; assay type: cell-based
From the text: (§1) Antibacterial activity of Compounds Nos. 1, 3, 5, 7, 9, 11, 13, 15, 17, 19, 21, 23, 25, 27, 29, 31, 33, 35 and 37 indentified hereinbefore which are the particular examples of the new cephalosporin derivative of general formula (I) according to this invention and which are in the form of the free carboxylic acid was estimated by determining the minimum inhibitory concentrations (MIC., μg/ml) of these compounds against a variety of bacteria according to a standard serial dilution method.

[3] = test system: Pseudomonas aeruginosa GN10362; test: as above; assay type: cell-based
From the text: as §1

[4] = test system: Klebsiella pneumoniae GN69; test: as above; assay type: cell-based
From the text: as §1

[5] = test system: Escherichia coli NIHJ JC-2; test: as above; assay type: cell-based; details: NIHJJC2
From the text: as §1

[6] = test system: Proteus vulgaris GN76; test: as above; assay type: cell-based
From the text: as §1

[7] = test system: Staphylococcus epidermidis ATCC14990; test: as above; assay type: cell-based
From the text: as §1

[8] = test system: Serratia marcescens GN10857; test: as above; assay type: cell-based
From the text: as §1

[9] = test system: Enterobacter cloacae GN7471; test: as above; assay type: cell-based
From the text: as §1

[10] = test system: Proteus vulgaris GN76/C-1; test: as above; assay type: cell-based
From the text: as §1

[11] = test system: Enterobacter hirae ATCC8043; test: as above; assay type: cell-based
From the text: as §1

[12] = test system: Serratia marcescens No. 1; test: as above; assay type: cell-based
From the text: as §1

[13] = test system: Citrobacter freundii GN346; test: as above; assay type: cell-based
From the text: as §1

[14] = test system: Enterobacter cloacae G-0008; test: as above; assay type: cell-based; details: G0008
From the text: as §1

[15] = test system: Citrobacter freundii GN346/16; test: as above; assay type: cell-based
From the text: as §1

[16] = test system: Escherichia coli W3630 RGN823; test: as above; assay type: cell-based; details: W3630RGN823
From the text: as §1

[17] = test system: Escherichia coli 255/S-1; test: as above; assay type: cell-based; details: 255/S1
From the text: as §1

[18] = test system: Staphylococcus aureus 209P JC-1; test: as above; assay type: cell-based
From the text: as §1

[19] = test system: Marganella morganii 1510; test: as above; assay type: cell-based
From the text: as §1

[20] = test system: Entrobacter faecalis W-73; test: as above; assay type: cell-based
From the text: as §1

[21] = test system: Marganella morganii 1510/S-1; test: as above; assay type: cell-based
From the text: as §1

[22] = test system: Klebsiella pneumoniae PCI602; test: as above; assay type: cell-based
From the text: as §1

[23] = test system: Escherichia coli GN206; test: as above; assay type: cell-based
From the text: as §1

| SMILES | MIC [2] | MIC [3] | MIC [4] | MIC [5] | MIC [6] | MIC [7] | MIC [8] | MIC [9] | MIC [10] | MIC [11] | MIC [12] | MIC [13] | MIC [14] | MIC [15] | MIC [16] | MIC [17] | MIC [18] | MIC [19] | MIC [20] | MIC [21] | also measured |
| --- | --- | --- | --- | --- | --- | --- | --- | --- | --- | --- | --- | --- | --- | --- | --- | --- | --- | --- | --- | --- | --- |
| CO/N=C(\C(=O)NC1C(=O)N2C(C(=O)OCOC(=O)C(C)(C)C)=C(SC3CCOC3)CS[C@H]12)c1csc(N)n1 (some centres unmarked) [Compound No. 4, pivaloyloxymethyl 7-[(Z)-2-(2-aminothiazol-4-yl)-2-methoxyiminoacetamido]-3-(tetrahydrofuran-3-Yl) thio-3-cephem-4-carboxylate] |  |  |  |  |  |  |  |  |  |  |  |  |  |  |  |  |  |  |  |  | NOAEL [1]: 3000 mg/kg |
| Nc1nc(/C(=N/O)C(=O)NC2C(=O)N3C(C(=O)O)=C(SC4COCOC4)CS[C@H]23)cs1 (some centres unmarked) [Compound No. 21, 7 - [(Z) -2-(2-aminothiazol-4-yl) -2-hydroxyiminoacetamido]-3-(1,3-dioxan-5-yl)thio-3-cephem-4-carboxylic acid] | 25 mg/L (≈ 51.3 µM) | > 100 mg/L | 0.2 mg/L (≈ 0.41 µM) | 0.2 mg/L (≈ 0.41 µM) | 0.78 mg/L (≈ 1.6 µM) | 0.2 mg/L (≈ 0.41 µM) | > 100 mg/L | 50 mg/L (≈ 103 µM) | 12.5 mg/L (≈ 25.6 µM) | 3.13 mg/L (≈ 6.42 µM) | 3.13 mg/L (≈ 6.42 µM) | > 100 mg/L | 0.78 mg/L (≈ 1.6 µM) | 3.13 mg/L (≈ 6.42 µM) | 3.13 mg/L (≈ 6.42 µM) | 0.2 mg/L (≈ 0.41 µM) | 0.2 mg/L (≈ 0.41 µM) | 12.5 mg/L (≈ 25.6 µM) | 12.5 mg/L (≈ 25.6 µM) | 0.1 mg/L (≈ 0.205 µM) | MIC [22]: 0.2 mg/L (≈ 0.41 µM); MIC [23]: 6.25 mg/L (≈ 12.8 µM) |
| CO/N=C(\C(=O)NC1C(=O)N2C(C(=O)O)=C(SCC3CCCCO3)CS[C@H]12)c1csc(N)n1 (some centres unmarked) [Compound No. 23, 7-[(Z)-2-(2-aminothiazol-4-yl)-2-methoxyiminoacetamido]-3-(tetrahydropyran-2-yl)methylthio-3-cephem-4-carboxylic acid] | 50 mg/L (≈ 97.3 µM) | 100 mg/L (≈ 195 µM) | 1.56 mg/L (≈ 3.04 µM) | 3.13 mg/L (≈ 6.09 µM) | 0.39 mg/L (≈ 0.759 µM) | 3.13 mg/L (≈ 6.09 µM) | 50 mg/L (≈ 97.3 µM) | 100 mg/L (≈ 195 µM) | 1.56 mg/L (≈ 3.04 µM) | 25 mg/L (≈ 48.7 µM) | 1.56 mg/L (≈ 3.04 µM) | > 100 mg/L | 3.13 mg/L (≈ 6.09 µM) | 6.25 mg/L (≈ 12.2 µM) | 3.13 mg/L (≈ 6.09 µM) | 3.13 mg/L (≈ 6.09 µM) | 3.13 mg/L (≈ 6.09 µM) | 50 mg/L (≈ 97.3 µM) | > 100 mg/L | 0.78 mg/L (≈ 1.52 µM) | MIC [22]: 3.13 mg/L (≈ 6.09 µM); MIC [23]: 6.25 mg/L (≈ 12.2 µM) |
| Nc1nc(/C(=N/O)C(=O)NC2C(=O)N3C(C(=O)O)=C(SCC4CCCCO4)CS[C@H]23)cs1 (some centres unmarked) [Compound No. 25, 7-[(Z)-2-(2-aminothiazol-4-yl)-2-hydroxyiminoacetamido]-3-(tetrahydropyran-2-yl)methylthio-3-cephem-4-carboxylic acid] | 100 mg/L (≈ 200 µM) | > 100 mg/L | 12.5 mg/L (≈ 25 µM) | 12.5 mg/L (≈ 25 µM) | 3.13 mg/L (≈ 6.27 µM) | 1.56 mg/L (≈ 3.12 µM) | > 100 mg/L | 100 mg/L (≈ 200 µM) | 12.5 mg/L (≈ 25 µM) | 12.5 mg/L (≈ 25 µM) | 6.25 mg/L (≈ 12.5 µM) | > 100 mg/L | 25 mg/L (≈ 50 µM) | 12.5 mg/L (≈ 25 µM) | 12.5 mg/L (≈ 25 µM) | 12.5 mg/L (≈ 25 µM) | 1.56 mg/L (≈ 3.12 µM) | 100 mg/L (≈ 200 µM) | 12.5 mg/L (≈ 25 µM) | 0.78 mg/L (≈ 1.56 µM) | MIC [22]: 12.5 mg/L (≈ 25 µM); MIC [23]: 12.5 mg/L (≈ 25 µM) |
| CO/N=C(\C(=O)NC1C(=O)N2C(C(=O)O)=C(SCC3CCOC3)CS[C@H]12)c1csc(N)n1 (some centres unmarked) [Compound No. 27, 7-[(Z)-2-(2-aminothiazol-4-yl)-2-methoxyiminoacetamido]-3-(tetrahydrofuran-3-yl)methylthio-3-cephem-4-carboxylic acid] | 50 mg/L (≈ 100 µM) | > 100 mg/L | 0.2 mg/L (≈ 0.4 µM) | 0.78 mg/L (≈ 1.56 µM) | 0.2 mg/L (≈ 0.4 µM) | 0.78 mg/L (≈ 1.56 µM) | 50 mg/L (≈ 100 µM) | 50 mg/L (≈ 100 µM) | 6.25 mg/L (≈ 12.5 µM) | > 100 mg/L | 3.13 mg/L (≈ 6.27 µM) | > 100 mg/L | 0.78 mg/L (≈ 1.56 µM) | 3.13 mg/L (≈ 6.27 µM) | 0.78 mg/L (≈ 1.56 µM) | 0.78 mg/L (≈ 1.56 µM) | 1.56 mg/L (≈ 3.12 µM) | 25 mg/L (≈ 50 µM) | 100 mg/L (≈ 200 µM) | 0.39 mg/L (≈ 0.781 µM) | MIC [22]: 0.39 mg/L (≈ 0.781 µM); MIC [23]: 6.25 mg/L (≈ 12.5 µM) |
